Drawing on ChEMBL document CHEMBL5512651, “Synthesis and biological evaluation of 4-imidazolidinone-containing compounds as potent inhibitors of the MDM2/p53 interaction” (Eur J Med Chem, 2024), this text covers Ki and IC50 for 24 compounds.

In test [1] the target is Tumour suppressor p53/oncoprotein Mdm2 (Homo sapiens, UniProt Q00987). Kind of test: Inhibition of MDM2/p53 (unknown origin) interaction by fluorescence polarization assay. It is filed as protein assay. (In general: Polarisation of emitted light reports the rotation of a fluorescent probe.)
For another test, the system named is MOLM-13. As to the kind of experiment: cells. To be noted: Homo sapiens, MOLM-13, 48 h.
In test [2] the target is Tumour suppressor protein p53/Mdm4 (Homo sapiens, UniProt O15151). Kind of test: Inhibition of MDM4/p53 (unknown origin) interaction by fluorescence polarization assay. The test is classed as protein assay.
Another test relates to HCT-116. Kind of test: cells. To be noted: Homo sapiens, HCT-116, 96 h.

Some results are limits rather than exact numbers.

Chain of Tumour suppressor p53/oncoprotein Mdm2 (P04637 whole entry): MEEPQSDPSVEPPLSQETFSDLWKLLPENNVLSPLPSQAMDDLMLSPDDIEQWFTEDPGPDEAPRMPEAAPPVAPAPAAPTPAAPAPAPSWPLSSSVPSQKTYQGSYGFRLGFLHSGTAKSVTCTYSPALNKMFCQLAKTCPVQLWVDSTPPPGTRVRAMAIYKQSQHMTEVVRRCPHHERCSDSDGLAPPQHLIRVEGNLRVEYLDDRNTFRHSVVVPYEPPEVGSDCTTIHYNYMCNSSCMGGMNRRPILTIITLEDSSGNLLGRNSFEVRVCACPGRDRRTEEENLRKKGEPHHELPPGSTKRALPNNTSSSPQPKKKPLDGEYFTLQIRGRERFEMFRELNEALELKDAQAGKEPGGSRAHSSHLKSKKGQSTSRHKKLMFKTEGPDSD
Chain of Tumour suppressor p53/oncoprotein Mdm2 (Q00987 whole entry): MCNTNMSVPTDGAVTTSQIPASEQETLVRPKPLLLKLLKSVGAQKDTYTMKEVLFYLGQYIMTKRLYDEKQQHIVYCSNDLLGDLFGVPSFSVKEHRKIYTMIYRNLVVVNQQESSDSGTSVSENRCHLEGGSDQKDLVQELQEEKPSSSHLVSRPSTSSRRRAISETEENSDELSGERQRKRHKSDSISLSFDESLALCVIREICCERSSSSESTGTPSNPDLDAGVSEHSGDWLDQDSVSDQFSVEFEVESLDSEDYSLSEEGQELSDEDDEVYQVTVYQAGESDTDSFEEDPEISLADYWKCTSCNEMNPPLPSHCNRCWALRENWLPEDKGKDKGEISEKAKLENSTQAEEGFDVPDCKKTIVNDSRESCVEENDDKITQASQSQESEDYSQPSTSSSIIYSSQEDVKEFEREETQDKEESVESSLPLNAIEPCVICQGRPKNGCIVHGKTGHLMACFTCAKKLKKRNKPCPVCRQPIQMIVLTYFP
Chain of Tumour suppressor protein p53/Mdm4 (P04637 whole entry): as the sequence (P04637 whole entry) above
Chain of Tumour suppressor protein p53/Mdm4 (O15151 whole entry): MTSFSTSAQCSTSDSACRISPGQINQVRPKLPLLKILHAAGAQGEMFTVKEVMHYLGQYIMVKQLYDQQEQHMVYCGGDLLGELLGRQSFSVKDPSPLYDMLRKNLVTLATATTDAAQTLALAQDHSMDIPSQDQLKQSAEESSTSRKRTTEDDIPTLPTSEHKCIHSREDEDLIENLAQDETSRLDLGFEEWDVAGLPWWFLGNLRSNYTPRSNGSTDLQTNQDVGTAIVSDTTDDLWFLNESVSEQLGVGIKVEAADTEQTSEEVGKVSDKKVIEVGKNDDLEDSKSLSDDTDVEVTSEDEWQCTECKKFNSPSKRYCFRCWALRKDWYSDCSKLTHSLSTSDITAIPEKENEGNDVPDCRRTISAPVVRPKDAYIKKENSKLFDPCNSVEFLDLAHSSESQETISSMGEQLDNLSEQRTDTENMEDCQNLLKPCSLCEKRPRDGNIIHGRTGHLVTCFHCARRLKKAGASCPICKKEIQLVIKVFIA

For orientation: Ki means the equilibrium dissociation constant of an inhibitor or competing ligand from its target. As a reminder, the IC50 is the point on the concentration scale where inhibition reaches its midpoint. On to `COc1cc(C(=O)O)ccc1N1CN2[C@@H](CC(C)(C)C)[C@@]3(CNc4cc(Cl)ccc43)[C@@H](c3cccc(F)c3F)[C@@H]2C1=O`, for which the figures for the Ki in test [1] and in test [2] were 3.1 nM and above 27000 nM, respectively. In addition, the figures for the concentration for half-maximal inhibition (IC50) in the test with MOLM-13 and in the test on HCT-116 were 56.5 nM and 285 nM, respectively.
For `COc1cc(C(=O)O)ccc1N1CN2[C@@H](CC(C)(C)C)[C@@]3(CNc4ccc(Cl)cc43)[C@@H](c3cccc(Cl)c3)[C@@H]2C1=O` the same measures were 67.4 nM, above 27000 nM, 2580 nM and 8620 nM.
For the compound `COc1cc(C(=O)O)ccc1N1CN2[C@@H](CC(C)(C)C)[C@@]3(CNc4cc(Cl)ccc43)[C@@H](c3ccc(Cl)cc3)[C@@H]2C1=O`, the Ki in test [1] is 27.9 nM; in test [2], above 27000 nM. Moreover, the IC50 in the test with MOLM-13 stood at 2200 nM; in the test on HCT-116, 2580 nM.
`COc1cc(C(=O)O)ccc1N1CN2[C@@H](CC(C)(C)C)[C@@]3(CNc4cc(Cl)ccc43)[C@@H](c3cccc(C(F)(F)F)c3)[C@@H]2C1=O`: the Ki in test [1] stood at 50.5 nM; in test [2], 5740 nM. Also, the figures for the IC50 with MOLM-13 and in the test with HCT-116 were 6280 nM and 6860 nM, respectively.
For `COc1cc(C(=O)O)ccc1N1CN2[C@@H](CC(C)(C)C)[C@@]3(CNc4ccc(Cl)cc43)[C@@H](c3ccc(Cl)cc3)[C@@H]2C1=O`, in that order: above 27000 nM, above 27000 nM, 8400 nM and 12800 nM.
On to `COc1cc(C(=O)O)ccc1N1CN2[C@@H](CC(C)(C)C)[C@@]3(CNc4cc(Cl)ccc43)[C@@H](c3ccccc3Cl)[C@@H]2C1=O`, for which the Ki is 32.8 nM in test [1] and above 27000 nM in test [2]. Also, the values for the concentration for half-maximal inhibition (IC50) with MOLM-13 and in the test with HCT-116 were 5490 nM and 9060 nM, respectively.
On to `CCC(C)(CC)C[C@@H]1N2CN(c3ccc(C(=O)O)cc3OC)C(=O)[C@H]2[C@H](c2cccc(Cl)c2)[C@]12CNc1cc(Cl)ccc12`, for which the figures for the Ki in test [1] and in test [2] were 1.2 nM and 854 nM, respectively. Further, the IC50 with MOLM-13 turned out to be 28.3 nM; with HCT-116, 165 nM.
With `CCN1[C@@H](CC(C)(C)C)[C@@]2(CNc3cc(Cl)ccc32)[C@@H](c2cccc(Cl)c2)[C@@H]1C(=O)Nc1ccc(C(=O)O)cc1OC`, the half-inhibitory concentration (IC50) in the test with MOLM-13 is 0.2 nM; with HCT-116, 13.6 nM.
Take `COc1cc(C(=O)O)ccc1N1CN2[C@@H](CC3(C)CCOCC3)[C@@]3(CNc4cc(Cl)ccc43)[C@@H](c3cccc(Cl)c3)[C@@H]2C1=O`: the Ki in test [1] stood at 2.7 nM; in test [2], 3370 nM. Besides, the values for the IC50 in the test on MOLM-13 and with HCT-116 were 139 nM and 562 nM, respectively.
For `COc1cc(C(=O)O)ccc1N1CN2[C@@H](CC(C)(C)C)[C@@]3(CNc4cc(Cl)ccc43)[C@@H](c3cccc(Cl)c3F)[C@@H]2C1=O` the same measures were 3.1 nM, 3110 nM, 0.9 nM and 49.7 nM.
Regarding `COc1cccc([C@H]2[C@@H]3C(=O)N(c4ccc(C(=O)O)cc4OC)CN3[C@@H](CC(C)(C)C)[C@@]23CNc2cc(Cl)ccc23)c1`, the Ki in test [1] is 5.3 nM; in test [2] it was above 27000 nM. Further, the half-maximal inhibitory concentration (IC50) with MOLM-13 is 944 nM; with HCT-116 it was 1420 nM.
On to `COc1cc(C(=O)O)ccc1N1CN2[C@@H](CC(C)(C)C)[C@@]3(CNc4cc(Cl)ccc43)[C@@H](c3cccc(Cl)c3Cl)[C@@H]2C1=O`, for which the Ki in test [1] came to 7.6 nM; in test [2], 5000 nM. For the same compound, the IC50 with MOLM-13 turned out to be 1370 nM; in the test with HCT-116 it was 2560 nM.
For `COc1cc(C(=O)O)ccc1N1CN2[C@@H](CC3(C)CCCC3)[C@@]3(CNc4cc(Cl)ccc43)[C@@H](c3cccc(Cl)c3)[C@@H]2C1=O`, in that order: 0.6 nM, 734 nM, 17 nM and 121 nM.
On to `COc1cc(C(=O)O)ccc1N1CN2[C@@H](CC(C)(C)C)[C@@]3(CNc4cc(Cl)ccc43)[C@@H](c3ccc(F)cc3)[C@@H]2C1=O`, for which the inhibition constant (Ki) in test [1] is 9.6 nM; in test [2], above 27000 nM. Besides, the IC50 in the test with MOLM-13 is 529 nM; in the test on HCT-116, 1300 nM.
As for `COc1cc(C(=O)O)ccc1N1CN2[C@@H](CC(C)(C)C)[C@@]3(CNc4cc(Cl)ccc43)[C@@H](c3cccc(F)c3)[C@@H]2C1=O`, the inhibition constant Ki in test [1] came out at 1.2 nM; in test [2] it was 3950 nM. The figures for the 50% inhibitory concentration (IC50) in the test with MOLM-13 and in the test with HCT-116 were 39.8 nM and 137 nM, respectively.
For the compound `COc1cc(C(=O)O)ccc1N1CN2[C@@H](CC3(C)CCC3)[C@@]3(CNc4cc(Cl)ccc43)[C@@H](c3cccc(Cl)c3)[C@@H]2C1=O`, the Ki in test [1] is 1 nM; in test [2], 1770 nM. Besides, the values for the half-inhibitory concentration (IC50) in the test on MOLM-13 and with HCT-116 were 380 nM and 598 nM, respectively.
As for `CC(C)(C)C[C@@H]1N[C@@H](C(=O)N[C@H]2CC[C@H](O)CC2)[C@H](c2cccc(Cl)c2F)[C@]12C(=O)Nc1cc(Cl)ccc12` [SAR-405838], the half-maximal inhibitory concentration (IC50) in the test on MOLM-13 came to 115 nM; with HCT-116, 227 nM. In addition, the affinity in test [2], expressed as Ki, was 36800 nM.
`COc1cc(C(=O)O)ccc1N1CN2[C@@H](CC(C)(C)C(C)C)[C@@]3(CNc4cc(Cl)ccc43)[C@@H](c3cccc(Cl)c3)[C@@H]2C1=O`: the Ki was 1.3 nM in test [1] and 1120 nM in test [2]. Further, the figures for the IC50 with MOLM-13 and with HCT-116 were 33.1 nM and 88.7 nM, respectively.
`COc1cc(C(=O)O)ccc1N1CN2[C@@H](CC(C)(C)C)[C@@]3(CNc4ccc(Cl)cc43)[C@@H](c3ccccc3Cl)[C@@H]2C1=O`: the Ki in test [1] is 1090 nM; in test [2], above 27000 nM. For the same compound, the IC50 in the test with MOLM-13 was 7280 nM; in the test on HCT-116, 12700 nM.
`COc1cc(C(=O)O)ccc1N1CN2[C@@H](CC(C)(C)C)[C@@]3(CNc4ccc(Cl)cc43)[C@@H](c3cccc(Cl)c3Cl)[C@@H]2C1=O`: the values for the inhibition constant (Ki) in test [1] and in test [2] were 152 nM and above 27000 nM, respectively. Also, the IC50 was found to be 7590 nM with MOLM-13 and 9740 nM in the test on HCT-116.
With `COc1cc(C(=O)O)ccc1N1CN2[C@@H](CC(C)(C)C)[C@@]3(CNc4cc(Cl)ccc43)[C@@H](c3cccc(C)c3)[C@@H]2C1=O`, the Ki in test [1] was determined as 5.2 nM; in test [2] it was 2170 nM. Further, the IC50 in the test with MOLM-13 turned out to be 295 nM; in the test with HCT-116 it was 844 nM.
In the case of `COc1cc(C(=O)O)ccc1N1CN2[C@@H](CC(C)(C)C)[C@@]3(CNc4cc(Cl)cnc43)[C@@H](c3cccc(Cl)c3)[C@@H]2C1=O`, the values for the Ki in test [1] and in test [2] were 1.2 nM and 3630 nM, respectively. Further, the IC50 was 204 nM in the test on MOLM-13 and 610 nM in the test with HCT-116.
Take `COc1cc(C(=O)O)ccc1N1CN2[C@@H](CC3(C)CCCCC3)[C@@]3(CNc4cc(Cl)ccc43)[C@@H](c3cccc(Cl)c3)[C@@H]2C1=O`: the inhibition constant Ki in test [1] was 2.7 nM; in test [2], above 27000 nM. Further, the IC50 was found to be 35.5 nM in the test with MOLM-13 and 136 nM in the test with HCT-116.
For `COc1cc(C(=O)O)ccc1N1CN2[C@@H](CC(C)(C)C)[C@@]3(CNc4cc(Cl)ccc43)[C@@H](c3ccccc3F)[C@@H]2C1=O`, the inhibition constant (Ki) in test [1] was 14.8 nM; in test [2] it was above 27000 nM. The IC50 in the test with MOLM-13 is 1640 nM; in the test on HCT-116, 3900 nM.
